Measured values: patent US7947728B1, “Indole and indazole analogs as glycogen synthase activators” (Hoffmann-La Roche Inc., priority 2009, dated 2011)

Test system: glycogen synthase
Test: Glycogen Synthase (GS) Assay
Format: biochemical
Settings: for EC50: compound concentration needed to give 50% maximum activation; for GS SC200: compound concentration needed to stimulate 200% of the enzyme activity
Protocol: The following tests were carried out in order to determine the activity of the compounds of formula (I).
Twelve μL per well of substrate solution containing glycogen (4.32 mg/′ml), 2.67 mM UDP-glucose, 21.6 mM phospho(enol)pyruvate and 2.7 mM NADH in 30 mM glycylglycine, pH 7.3 buffer was added into a polystyrene 384-well assay plate (BD Biosciences).
Compound solutions (8 μL/well) at various concentrations (0-300 μM) were added to the assay plate (columns 5-24). Compound solution contains 30 mM glycylglycine, pH 7.3, 40 mM KCl, 20 mM MgCl2, 9.2% DMSO, with (columns 15-24) or without (columns 5-14) 20 mM glucose 6-phosphate.
Enzyme solution (12 μL/well) containing glycogen synthase (16.88 μg/ml), pyruvate kinase (0.27 mg/ml), lactate dehydrogenase (0.27 mg/ml) in 50 mM Tris-HCl, pH 8.0, 27 mM DTT and bovine serum albumin (BSA, 0.2 mg/ml) was added to the assay plate (columns 3-24). As a blank control, enzyme solution without glycogen synthase was added into the top half wells of columns 1-2. To the bottom half wells of columns 1-2 were added a known activator, glucose 6-phosphate (at final concentration 5 mM) in addition to the enzyme solution. The reaction mixture was incubated at room temperature. The assay plate was then read for absorbance at 340 nm on an Envision reader every 3 minutes up to a total of 15 minutes.
The enzyme activity (with or without compound) was calculated by the reaction rate and represented by the optical density change (δOD) per minute. Percent stimulation of glycogen synthase activity by a compound at various concentrations was calculated by the following formula: % stimulation=100*Rs/Rt,
wherein Rs is the reaction rate of the enzyme in the presence of compound and Rt is the reaction rate of the enzyme in the absence of compound.
SC200 is defined as the compound concentration that is needed to stimulate 200% of the enzyme activity. EC50 is defined as the compound concentration that is needed to give 50% maximum activation.

Row | SMILES | EC50 | GS SC200
1 | COc1cc(F)c(F)cc1-c1ccc(OCc2cccc3[nH]ncc23)cc1 [Example 1, 4-(4′,5′-Difluoro-2′-methoxy-biphenyl-4-yloxymethyl)-1H-indazole] | 6.56 µM | 4.57 µM
2 | COc1cc(F)c(F)cc1-c1ccc(OCc2cccc3c2cnn3CCC(=O)O)cc1 [Example 2, 3-[4-(4′,5′-Difluoro-2′-methoxy-biphenyl-4-yloxymethyl)-indazol-1-yl]-propionic acid] | 26 µM | 5.52 µM
3 | COc1cc(F)c(F)cc1-c1ccc(OCc2ccc3cn[nH]c3c2)cc1 [Example 3, 6-(4′,5′-Difluoro-2′-methoxy-biphenyl-4-yloxymethyl)-1H-indazole] | 6 µM | 3.92 µM
4 | COc1cc(F)c(F)cc1-c1ccc(OCc2ccc3cnn(CC(=O)O)c3c2)cc1 [Example 4, [6-(4′,5′-Difluoro-2′-methoxy-biphenyl-4-yloxymethyl)-indazol-1-yl]-acetic acid] | 7 µM | 2.56 µM
5 | COc1cc(F)c(F)cc1-c1ccc(OCc2ccc3cnn(CCC(=O)O)c3c2)cc1 [Example 5, 3-[6-(4′,5′-Difluoro-2′-methoxy-biphenyl-4-yloxymethyl)-indazol-1-yl]-propionic acid] | 1.43 µM | 0.28 µM
6 | COc1cc(F)c(F)cc1-c1ccc(OCc2ccc3cc[nH]c3c2)cc1 [Example 6, 6-(4′,5′-difluoro-2′-methoxy-biphenyl-4-yloxymethyl)-1H-indole] | 5.37 µM | 5.3 µM
7 | COc1cc(F)c(F)cc1-c1ccc(OCc2ccc3ccn(CCC(=O)O)c3c2)cc1 [Example 7, 3-[6-(4′,5′-Difluoro-2′-methoxy-biphenyl-4-yloxymethyl)-indol-1-yl]-propionic Acid] | 3 µM | 0.6 µM
8 | COc1cc(F)c(F)cc1-c1ccc(OCc2ccc3ccn(CC(=O)O)c3c2)cc1 [Example 8, [6-(4′,5′-Difluoro-2′-methoxy-biphenyl-4-yloxymethyl)-indol-1-yl]-Acetic Acid] | 5.16 µM | 2 µM
9 | COc1cc(F)c(F)cc1-c1ccc(OCc2ccc3ccn(C(C)CC(=O)O)c3c2)cc1 (stereo not shown) [Example 9, 3-[6-(4′,5′-Difluoro-2′-methoxy-biphenyl-4-yloxymethyl)-indol-1-yl]-butyric Acid] | 2.01 µM | 0.41 µM
10 | COc1cc(F)c(F)cc1-c1ccc(OCc2cccc3[nH]ccc23)cc1 [Example 10, 4-(4′,5′-Difluoro-2′-methoxy-biphenyl-4-yloxymethyl)-1H-indole] | 3.88 µM | 2.86 µM
11 | COc1cc(F)c(F)cc1-c1ccc(OCc2cccc3c2ccn3C(=O)CCC(=O)O)cc1 [Example 11, 4-[4-(4′,5′-Difluoro-2′-methoxy-biphenyl-4-yloxymethyl)-indol-1-yl]-4-oxo-butyric acid] | 2.46 µM | 0.44 µM
12 | COc1cc(F)c(F)cc1-c1ccc(OCc2cccc3c2ccn3C(=O)CC(C)(C)C(=O)O)cc1 [Example 12, 4-[4-(4′,5′-Difluoro-2′-methoxy-biphenyl-4-yloxymethyl)-indol-1-yl]-2,2-dimethyl-4-oxo-butyric acid] | 3.04 µM | 1.19 µM
13 | COc1cc(F)c(F)cc1-c1ccc(OCc2cccc3c2ccn3CC(=O)O)cc1 [Example 13, [4-(4′,5′-Difluoro-2′-methoxy-biphenyl-4-yloxymethyl)-indol-1-yl]-acetic acid] | 3.12 µM | 0.43 µM
14 | COc1cc(F)c(F)cc1-c1ccc(OCc2cccc3c2ccn3CCC(=O)O)cc1 [Example 14, 3-[4-(4′,5′-Difluoro-2′-methoxy-biphenyl-4-yloxymethyl)-indol-1-yl]-propionic acid] | 5.49 µM | 1.46 µM
15 | COc1cc(F)c(F)cc1-c1ccc(OCc2cccc3c2ccn3C(C)CC(=O)O)cc1 (stereo not shown) [Example 15, 3-[4-(4′,5′-Difluoro-2′-methoxy-biphenyl-4-yloxymethyl)-indol-1-yl]-butyric acid] | 6.67 µM | 2.29 µM
16 | COc1cc(F)c(F)cc1-c1ccc(OCc2ccc3[nH]nc(N)c3c2)cc1 [Example 16, 5-(4′,5′-Difluoro-2′-methoxy-biphenyl-4-yloxymethyl)-1H-indazol-3-ylamine] | 2.79 µM | 0.6 µM
17 | Cn1nc(N)c2cc(COc3ccc(-c4cc(F)c(F)cc4F)cc3)ccc21 [Example 17, Methyl-5-(2′,4′,5′-trifluoro-biphenyl-4-yloxymethyl)-1H-indazol-3-ylamine] | 18.5 µM | 3.9 µM
